# Test results from ChEMBL document CHEMBL1221176, “Actin microfilament aggregation induced by withaferin A is mediated by annexin II” (Nat Chem Biol, 2006).
# The source made the active and inactive calls. The calls are words filed in the database; no cut-off is given here.
# What was measured:
# [1] = target: Annexin A2 (Homo sapiens) (UniProt P07355); experiment: Inhibition of annexin 2-mediated liposome aggregation after 15 mins by spectrophotometry
# Target sequence in this assay (P07355 whole entry): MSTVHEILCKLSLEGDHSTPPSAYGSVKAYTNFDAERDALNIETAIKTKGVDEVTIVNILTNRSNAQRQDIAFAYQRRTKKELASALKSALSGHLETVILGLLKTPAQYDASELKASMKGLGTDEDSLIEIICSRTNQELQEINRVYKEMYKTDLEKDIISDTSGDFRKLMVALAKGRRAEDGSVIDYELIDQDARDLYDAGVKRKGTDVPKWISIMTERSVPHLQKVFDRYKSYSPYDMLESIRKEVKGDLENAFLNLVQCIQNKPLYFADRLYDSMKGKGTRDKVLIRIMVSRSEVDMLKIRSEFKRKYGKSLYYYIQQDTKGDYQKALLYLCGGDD
# [2] = target: Annexin A2 (Homo sapiens) (UniProt P07355); experiment: Binding affinity to annexin 2 assessed as inhibition of protein-lipid interaction after 15 mins by coomassine blue staining
# Target sequence in this assay (P07355 whole entry): as above
# Homo sapiens [3] = organism: Homo sapiens; experiment: Effect on human F-actin bundling assessed as light scattering after 1 hr by SDS-PAGE
# Annexin A2 (Bos taurus) [4] = target: Annexin A2 (Bos taurus) (UniProt P04272); experiment: Displacement of biotinyl-withaferin from bovine lung annexin-2 at 4 uM by chemiluminescence assay
# Annexin A2 (Bos taurus), sequence (P04272 whole entry): as the sequence (P07355 whole entry) above, with A66E, I160V, P223C, D230E, R245K, R309K counted along it
# PC-3M = experiment: Cytotoxicity against human PC3M cells assessed as viable cell after 24 hrs by MTT assay; format: functional, cell-based
# Annexin A6 (Bos taurus) = target: T1, Annexin A6 (Bos taurus) (UniProt P79134); experiment: Displacement of biotinyl-withaferin from bovine lung annexin 6 at 10 uM by chemiluminescence assay
# T1 sequence (whole entry): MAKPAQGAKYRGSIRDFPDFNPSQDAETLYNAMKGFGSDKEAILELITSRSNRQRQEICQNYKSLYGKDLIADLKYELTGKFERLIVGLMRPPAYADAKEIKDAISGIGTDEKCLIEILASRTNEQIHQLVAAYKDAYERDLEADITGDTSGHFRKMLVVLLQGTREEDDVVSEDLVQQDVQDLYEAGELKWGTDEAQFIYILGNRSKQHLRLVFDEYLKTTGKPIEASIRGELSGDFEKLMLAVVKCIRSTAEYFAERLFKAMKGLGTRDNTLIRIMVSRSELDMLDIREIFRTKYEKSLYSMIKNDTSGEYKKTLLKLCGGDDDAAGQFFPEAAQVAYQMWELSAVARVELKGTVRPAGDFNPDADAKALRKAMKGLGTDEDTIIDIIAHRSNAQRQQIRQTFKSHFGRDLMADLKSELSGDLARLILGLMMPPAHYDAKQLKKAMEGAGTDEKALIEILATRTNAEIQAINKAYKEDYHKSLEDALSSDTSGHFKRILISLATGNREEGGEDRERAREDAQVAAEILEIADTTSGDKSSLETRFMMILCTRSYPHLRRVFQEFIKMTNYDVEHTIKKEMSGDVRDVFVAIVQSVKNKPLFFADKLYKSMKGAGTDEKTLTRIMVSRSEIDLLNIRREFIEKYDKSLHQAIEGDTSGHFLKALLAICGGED
# [5] = target: Annexin A2 (Homo sapiens) (UniProt P07355); experiment: Displacement of biotinyl-withaferin from annexin-2 in human CHP100 at 0.4 to 4 uM by chemiluminescence assay
# Target sequence in this assay (P07355 whole entry): as the sequence (P07355 whole entry) above
# Annexin A4 (Bos taurus) = target: T2, Annexin A4 (Bos taurus) (UniProt P13214); experiment: Displacement of biotinyl-withaferin from bovine lung annexin 4 at 10 uM by chemiluminescence assay
# T2 sequence (whole entry): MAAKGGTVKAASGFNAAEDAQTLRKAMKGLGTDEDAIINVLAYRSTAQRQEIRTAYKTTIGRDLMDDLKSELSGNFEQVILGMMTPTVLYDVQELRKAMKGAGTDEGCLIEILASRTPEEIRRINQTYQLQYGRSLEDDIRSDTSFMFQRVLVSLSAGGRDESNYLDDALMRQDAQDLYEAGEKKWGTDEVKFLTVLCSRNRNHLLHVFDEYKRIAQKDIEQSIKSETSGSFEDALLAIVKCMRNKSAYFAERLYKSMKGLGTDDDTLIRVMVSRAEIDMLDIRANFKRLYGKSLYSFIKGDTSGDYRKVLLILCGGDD
# HepG2 [6] = experiment: Cytotoxicity against human HepG2 cells harboring annexin 2 assessed as rapid shape change and rounding up at 4 uM after 2 hrs; format: functional, cell-based
# [7] = target: Annexin A2 (Homo sapiens) (UniProt P07355); experiment: Induction of annexin 2-mediated F-actin disruption in human WI38 cells at 4 uM after 2 hrs by confocal laser scanning microscopy; format: cell-based; settings: WI-38
# Target sequence in this assay (P07355 whole entry): as the sequence (P07355 whole entry) above
# [8] = target: Annexin A2 (Homo sapiens) (UniProt P07355); experiment: Induction of annexin 2-mediated F-actin disruption in human HepG2 cells at 4 uM after 2 hrs by confocal laser scanning microscopy; format: cell-based
# Target sequence in this assay (P07355 whole entry): as the sequence (P07355 whole entry) above
# WI-38 [9] = experiment: Cytotoxicity against human WI38 cells assessed as cell viability pretreated after 16 hrs by MTT assay in presence of 1 uM cytochalasin B; format: functional, cell-based
# Annexin A2 (Bos taurus) [10] = target: Annexin A2 (Bos taurus) (UniProt P04272); experiment: Displacement of biotinyl-withaferin from bovine lung annexin 2 at 10 uM by chemiluminescence assay
# Annexin A2 (Bos taurus) [11] = target: Annexin A2 (Bos taurus) (UniProt P04272); experiment: Displacement of biotinyl-withaferin from bovine lung annexin-2 at 40 uM by chemiluminescence assay
# [12] = target: Annexin A2 (Homo sapiens) (UniProt P07355); experiment: Induction of annexin-2-mediated cytotoxicity in human MCF10A cells assessed as cell morphology at 4 uM after 2 hrs by scanning electron microscopy; settings: MCF-10A
# Target sequence in this assay (P07355 whole entry, looked up): as the sequence (P07355 whole entry) above
# [13] = target: Annexin A2 (Homo sapiens) (UniProt P07355); experiment: Effect on human annexin 2-mediated F-actin bundling assessed as increase in light scattering after 1 hr by SDS-PAGE
# Target sequence in this assay (P07355 whole entry): as the sequence (P07355 whole entry) above
# Annexin A5 (Bos taurus) = target: T3, Annexin A5 (Bos taurus) (UniProt P81287); experiment: Displacement of biotinyl-withaferin from bovine lung annexin 5 at 10 uM by chemiluminescence assay
# T3 sequence (whole entry): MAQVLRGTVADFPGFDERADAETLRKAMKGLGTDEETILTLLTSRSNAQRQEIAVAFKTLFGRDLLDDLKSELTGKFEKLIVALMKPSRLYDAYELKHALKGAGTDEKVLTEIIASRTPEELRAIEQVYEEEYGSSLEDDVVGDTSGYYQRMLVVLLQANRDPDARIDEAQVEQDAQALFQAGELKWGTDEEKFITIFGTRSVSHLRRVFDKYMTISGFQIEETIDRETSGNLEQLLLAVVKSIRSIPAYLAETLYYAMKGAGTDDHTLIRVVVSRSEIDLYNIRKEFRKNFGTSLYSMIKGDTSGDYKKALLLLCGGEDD
# Annexin A2 (Bos taurus) [14] = target: Annexin A2 (Bos taurus) (UniProt P04272); experiment: Displacement of biotinyl-withaferin from bovine lung annexin-2 at 0.4 uM by chemiluminescence assay
# Homo sapiens [15] = organism: Homo sapiens; experiment: Effect on human F-actin pellet formation after 1 hr by SDS-PAGE
# HepG2 [16] = experiment: Cytotoxicity against human HepG2 cells harboring annexin 2 after 48 hrs by MTT assay; format: functional, cell-based
# CHP100 = experiment: Cytotoxicity against human CHP100 cells assessed as viable cell after 24 hrs by MTT assay; format: functional, cell-based
# [17] = target: Annexin A2 (Homo sapiens) (UniProt P07355); experiment: Induction of annexin 2-mediated cytoskeleton aggregate accumulation in human HepG2 cells at 4 uM after 2 hrs by confocal laser scanning microscopy; format: cell-based
# [18] = target: Annexin A2 (Homo sapiens) (UniProt P07355); experiment: Displacement of biotinyl-withaferin from annexin-2 in human MCF10A at 0.4 to 4 uM by chemiluminescence assay
# WI-38 [19] = experiment: Cytotoxicity against human WI38 cells assessed as cell viability pretreated after 16 hrs by MTT assay in presence of 0.5 uM cytochalasin B; format: functional, cell-based
# Annexin A1 (Bos taurus) = target: T4, Annexin A1 (Bos taurus) (UniProt P46193); experiment: Displacement of biotinyl-withaferin from bovine lung annexin 1 at 10 uM by chemiluminescence assay
# T4 sequence (whole entry): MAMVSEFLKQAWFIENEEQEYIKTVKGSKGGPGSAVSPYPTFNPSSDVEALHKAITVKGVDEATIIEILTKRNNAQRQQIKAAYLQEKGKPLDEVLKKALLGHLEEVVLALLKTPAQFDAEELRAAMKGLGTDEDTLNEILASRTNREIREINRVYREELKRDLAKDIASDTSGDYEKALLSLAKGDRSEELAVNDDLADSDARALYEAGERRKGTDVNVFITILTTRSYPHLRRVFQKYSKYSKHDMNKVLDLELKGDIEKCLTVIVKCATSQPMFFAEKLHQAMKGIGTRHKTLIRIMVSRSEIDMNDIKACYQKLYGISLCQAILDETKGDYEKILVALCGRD
# [20] = target: Annexin A2 (Homo sapiens) (UniProt P07355); experiment: Induction of annexin-2-mediated cytotoxicity in human CHP100 cells at 4 uM after 2 hrs by MTT assay; format: cell-based
structure (smiles),measurement,setting,value
CCN1C(=O)C=CC1=O,inhibition,[1],Active
same,Activity,[2],Active
CC1=C(CO)C(=O)O[C@@H]([C@@H](C)[C@H]2CC[C@H]3[C@@H]4C[C@H]5O[C@]56[C@@H](O)C=CC(=O)[C@]6(C)[C@H]4CC[C@]23C)C1,Activity,Homo sapiens [3],inactive
same,Activity,Annexin A2 (Bos taurus) [4],Active
same,Activity,PC-3M,Active
same,Activity,Annexin A6 (Bos taurus),inactive
same,Activity,[5],Active
same,Activity,Annexin A4 (Bos taurus),inactive
same,Activity,HepG2 [6],Active
same,Activity,[7],Active
same,inhibition,[1],inactive
same,Activity,[8],Active
same,Activity,WI-38 [9],inactive
same,Activity,[2],inactive
same,Activity,Annexin A2 (Bos taurus) [10],Active
same,Activity,Annexin A2 (Bos taurus) [11],Active
same,Activity,[12],inactive
same,Activity,[13],Active
same,Activity,Annexin A5 (Bos taurus),inactive
same,Activity,Annexin A2 (Bos taurus) [14],Active
same,Activity,Homo sapiens [15],inactive
same,Activity,HepG2 [16],Toxic
same,Activity,CHP100,Active
same,Activity,[17],Active
same,Activity,[18],Active
same,Activity,WI-38 [19],inactive
same,Activity,Annexin A1 (Bos taurus),inactive
CC1=C(C)C(=O)O[C@H]([C@](C)(O)[C@H]2CC[C@H]3[C@@H]4C[C@H]5O[C@]56[C@@H](O)C=CC(=O)[C@]6(C)[C@H]4CC[C@]23C)C1,Activity,[20],inactive
same,Activity,Annexin A2 (Bos taurus) [11],inactive
same,Activity,[12],inactive
